According to patent US20240156971A1, “METHODS AND SORTILIN BINDING CONJUGATE COMPOUNDS FOR TARGETING CANCER STEM CELLS” (TRANSFERT PLUS, SOCIÉTÉ EN COMMANDITE, priority 2021, published 2024):
Square brackets hold non-standard residues; d marks the D form. Ends that are not written are not given here. Alexa Fluor 488 = Alexa Fluor 488 C5-maleimide dye; Nle = CCCC[C@H](N)C(=O)O

Experiments:
[1] = biological target: T1, Sortilin (Homo sapiens, UniProt Q99523); assay: Uptake of TH19P01-Alexa Fluor 488 by hBCSCs in the presence of competing Sortilin ligands; assay type: cell-based; details: 200 nM fluorescent peptide, 2 h, 10 μM neurotensin, 50 μM TH19P01 or 1 nM progranulin
T1 construct: host or cells: human triple-negative breast cancer stem cells (hBCSCs)
T1 sequence (Q99523 78-831): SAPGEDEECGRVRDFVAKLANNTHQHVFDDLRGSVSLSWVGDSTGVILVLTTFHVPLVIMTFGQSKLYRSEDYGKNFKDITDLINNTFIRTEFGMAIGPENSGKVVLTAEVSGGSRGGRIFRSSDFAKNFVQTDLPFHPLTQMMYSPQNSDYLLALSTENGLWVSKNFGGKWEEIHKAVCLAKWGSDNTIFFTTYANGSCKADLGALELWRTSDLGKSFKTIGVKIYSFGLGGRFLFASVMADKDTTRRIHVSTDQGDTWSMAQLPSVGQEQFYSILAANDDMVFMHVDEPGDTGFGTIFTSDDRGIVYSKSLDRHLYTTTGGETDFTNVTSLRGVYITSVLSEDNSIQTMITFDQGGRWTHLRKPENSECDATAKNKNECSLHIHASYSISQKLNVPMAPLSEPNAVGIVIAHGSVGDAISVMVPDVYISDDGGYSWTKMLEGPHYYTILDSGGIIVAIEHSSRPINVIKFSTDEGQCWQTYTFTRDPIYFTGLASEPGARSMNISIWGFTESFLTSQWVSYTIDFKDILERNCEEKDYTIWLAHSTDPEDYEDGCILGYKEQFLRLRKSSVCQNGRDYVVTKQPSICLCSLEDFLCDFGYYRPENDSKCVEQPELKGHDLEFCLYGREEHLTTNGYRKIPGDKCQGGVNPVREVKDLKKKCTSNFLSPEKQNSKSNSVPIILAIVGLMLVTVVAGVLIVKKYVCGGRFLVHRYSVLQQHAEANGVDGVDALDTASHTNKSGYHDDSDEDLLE

[2] = tested on: ovarian hOCSC xenografts; assay: hOCSC xenografts treated with single agents or combined with carboplatin; assay type: in vivo, mice; details: docetaxel 10 mg/kg; TH1902 23 mg/kg; paclitaxel 10 mg/kg; carboplatin 40 mg/kg; day 18
Experimental: Mice bearing ovarian hOCSC xenografts were treated with vehicle, docetaxel, paclitaxel, TH1902 or carboplatin, and other groups of mice were administered carboplatin in combination with either docetaxel, paclitaxel or TH1902. To minimize the risk of side effects resulting from combining treatments, the dosages used for each drug were reduced to the following: docetaxel 10 mg/kg; TH1902 23 mg/kg (equivalent to the docetaxel dosage); paclitaxel 10 mg/kg; carboplatin 40 mg/kg (unchanged).

[3] = tested on: hBCSCs; assay: Internalization of TH19P01-Alexa Fluor 488 by hBCSCs (flow cytometry); assay type: cell-based, human; details: 200 nM, 2 hours, vs vehicle-treated cells
Experimental: Assessment of Intracellular Fluorescence with TH19P01-Alexa Fluor™ 488. hBCSC were grown in 12-well plates in complete media for 24 hours. […] In another experiment, siScrambled- or siSORT1-transfected cells were washed with HBSS and incubated in HBSS in the presence or absence of 200 nM Alexa Fluor™ 488-labeled TH19P01. For both types of experiments, after 2 hours of incubation at 37° C., cells were washed with HBSS, trypsinized, washed again and fluorescence assessed in the FL1 channel using a C6 Accuri™ flow cytometer (BD Biosciences, San Jose, CA).

Molecule	decrease of intracellular fluorescence (internalization of TH19P01-Alexa Fluor 488) by competing agent [1]	inhibition of tumor growth, single agent [2]	also measured
GVRAKAGVRN(Nle)FKSESY (GVRAKAGVRN[Nle]FKSESY) [TH19P01]	decrease significantly (p<0.01) by about half	–	–
CC(=O)O[C@H]1C(=O)[C@@]2(C)[C@H]([C@H](OC(=O)c3ccccc3)[C@]3(O)C[C@H](OC(=O)[C@H](O)[C@@H](NC(=O)c4ccccc4)c4ccccc4)C(C)=C1C3(C)C)[C@]1(OC(C)=O)CO[C@@H]1C[C@@H]2O [Paclitaxel, paclitaxel]	–	practically equivalent to that seen with docetaxel	–
TH19P01-Alexa Fluor™ 488 (GVRAKAGVRN[Nle]FKSESYC(Alexa Fluor 488))	–	–	fluorescent signal in cells versus background fluorescence [3]: an order of magnitude greater than the background fluorescence
progranulin [reference compound]	decrease significantly (p<0.01) by about half	–	–
N.N.O=C([O-])C1(C(=O)[O-])CCC1.[Pt+2] [carboplatin]	–	practically equivalent to that seen with docetaxel	–
